In the supplement of paper PMC10307832:

Experiments:
Assay in all cases: relative viability (nuclei count vs DMSO), 5 days (fraction); higher = more cells survive
Carfilzomib + Vorinostat = compound: CC(C)C[C@H](NC(=O)[C@H](CCc1ccccc1)NC(=O)CN1CCOCC1)C(=O)N[C@@H](Cc1ccccc1)C(=O)N[C@@H](CC(C)C)C(=O)[C@@]1(C)CO1 [Carfilzomib] + O=C(CCCCCCC(=O)Nc1ccccc1)NO [Vorinostat] (partner 1 µM)
Procedure, shortened: (§1)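 One day after seeding in 1536-well plates, lung cancer cell lines were dosed by pin tool. Dosing was either single-drug or a fixed anchor-drug dose plus five library-drug doses (not always all listed) in √10 steps. After 5 days, nuclei were stained in one fix-and-stain step and counted on 4× images, and relative viability is the nuclei count of treated wells over that of vehicle wells, given as the median of duplicate plates.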

Crizotinib + Dasatinib = compound: C[C@@H](Oc1cc(-c2cnn(C3CCNCC3)c2)cnc1N)c1c(Cl)ccc(F)c1Cl [Crizotinib] + Cc1nc(Nc2ncc(C(=O)Nc3c(C)cccc3Cl)s2)cc(N2CCN(CCO)CC2)n1 [Dasatinib] (partner 0.075 µM)
Procedure, shortened: as §1

Crizotinib + Decitabine = compound: C[C@@H](Oc1cc(-c2cnn(C3CCNCC3)c2)cnc1N)c1c(Cl)ccc(F)c1Cl [Crizotinib] + Nc1ncn([C@H]2C[C@H](O)[C@@H](CO)O2)c(=O)n1 [Decitabine] (partner 2 µM)
Procedure, shortened: as §1

Olaparib + Phenformin = compound: O=C(c1cc(Cc2n[nH]c(=O)c3ccccc23)ccc1F)N1CCN(C(=O)C2CC2)CC1 [Olaparib] + N=C(N)NC(=N)NCCc1ccccc1 [Phenformin] (partner 250 µM)
Procedure, shortened: as §1

Cell Line	relative viability (Carfilzomib + Vorinostat; first compound 0.001 µM)	relative viability (Carfilzomib + Vorinostat; first compound 0.003162 µM)	relative viability (Carfilzomib + Vorinostat; first compound 0.01 µM)	relative viability (Carfilzomib + Vorinostat; first compound 0.03162 µM)	relative viability (Carfilzomib + Vorinostat; first compound 0.1 µM)	relative viability (Crizotinib + Dasatinib; first compound 0.01 µM)	relative viability (Crizotinib + Dasatinib; first compound 0.03162 µM)	relative viability (Crizotinib + Dasatinib; first compound 0.1 µM)	relative viability (Crizotinib + Dasatinib; first compound 1 µM)	relative viability (Crizotinib + Decitabine; first compound 0.01 µM)	relative viability (Crizotinib + Decitabine; first compound 0.03162 µM)	relative viability (Crizotinib + Decitabine; first compound 0.1 µM)	relative viability (Crizotinib + Decitabine; first compound 1 µM)	relative viability (Olaparib + Phenformin; first compound 0.08 µM)	relative viability (Olaparib + Phenformin; first compound 0.253 µM)	relative viability (Olaparib + Phenformin; first compound 2.53 µM)	relative viability (Olaparib + Phenformin; first compound 8 µM)	relative viability (Crizotinib + Dasatinib; first compound 0.3162 µM)	relative viability (Crizotinib + Decitabine; first compound 0.3162 µM)
NCI-H23	0.506	0.656	0.195	0.118	0.0962	0.763	0.83	0.645	0.742	0.296	0.272	0.331	0.308	0.841	0.714	0.724	0.609	–	–
NCI-H322M	0.796	0.898	0.952	0.788	0.38	0.23	0.251	0.232	0.263	–	0.713	0.687	0.713	0.937	0.815	0.81	0.635	0.262	0.721
NCI-H358	0.69	0.692	0.515	0.0656	0.0773	0.137	0.163	0.147	0.156	0.184	0.215	0.2	0.214	0.396	0.325	0.351	0.327	0.151	0.241
NCI-H441	0.777	0.683	0.546	0.129	0.141	0.531	0.524	0.497	0.51	0.242	0.238	0.248	0.244	0.824	0.873	0.951	0.706	–	0.23
NCI-H460	0.743	0.661	0.68	0.093	0.0182	0.358	0.521	0.478	0.479	0.451	0.511	0.476	0.452	0.598	0.44	0.443	0.233	0.424	0.645
NCI-H520	0.684	0.605	0.192	0.156	0.148	0.19	0.192	0.2	0.155	0.474	0.47	0.496	0.482	0.645	0.624	0.495	0.385	0.271	0.533
NCI-H522	0.888	1.01	0.841	0.426	0.412	0.945	–	0.875	0.944	0.649	0.709	0.762	0.658	0.665	0.722	0.582	0.562	0.938	0.657
NCI-H596	0.585	0.612	0.448	0.173	0.159	0.634	0.594	0.677	0.722	–	0.993	1.01	1.11	0.76	0.732	0.653	0.66	0.658	1.08
NCI-H647	0.69	0.483	0.137	0.0309	0.0228	0.148	0.172	0.131	0.17	0.396	0.382	0.262	0.448	0.69	0.431	0.518	0.507	0.191	0.508
NCI-H650	0.354	0.468	0.532	0.132	0.107	0.472	0.434	0.512	0.406	0.332	0.291	0.323	0.343	0.541	0.423	0.473	0.429	0.388	–
NCI-H661	0.821	0.861	0.808	0.553	0.215	0.811	–	0.899	0.98	0.546	0.533	0.531	0.569	0.219	0.278	0.273	0.253	0.809	0.594
NCI-H727	0.999	1.14	1.45	1.01	0.651	–	0.398	0.348	0.341	0.763	0.769	0.836	0.796	0.634	0.662	0.556	0.396	–	0.763
NCI-H838	0.922	0.774	0.719	0.199	0.152	0.208	0.303	0.313	0.261	0.433	0.473	0.473	0.474	0.569	0.589	0.641	0.589	0.248	0.483
NCI-H1355	0.533	0.703	0.664	0.569	0.142	0.736	0.823	0.733	0.65	0.348	0.344	0.392	0.346	0.478	0.433	0.47	0.432	0.598	0.338
NCI-H1395	–	0.791	0.469	0.306	0.316	0.388	0.376	0.409	0.358	0.661	0.688	0.743	0.732	0.419	0.4	0.423	0.396	0.391	0.791
NCI-H1437	0.834	0.895	1.14	0.435	0.206	0.376	0.435	0.403	0.396	0.547	0.551	0.613	0.578	0.301	0.27	0.279	0.296	0.301	0.61
NCI-H1650	0.65	0.475	0.19	0.152	0.127	0.273	0.299	0.311	0.299	0.3	0.455	0.466	0.468	0.446	0.475	0.405	0.537	0.362	0.396
NCI-H1651	0.602	0.597	0.447	0.188	0.104	0.374	0.389	0.456	0.314	0.592	0.407	0.63	0.591	0.365	0.326	0.234	0.195	0.403	0.326
NCI-H1666	0.972	0.933	1.15	1.03	0.599	0.808	0.797	0.741	0.863	0.744	0.651	0.715	0.673	0.575	0.545	0.502	0.523	0.77	0.712
NCI-H1734	0.75	0.932	0.592	0.119	0.109	0.49	0.455	0.397	0.555	0.466	0.5	0.493	0.493	0.46	0.325	0.35	0.372	–	–
NCI-H1755	0.806	0.793	0.664	0.464	0.383	0.407	0.46	0.454	0.413	0.639	0.713	0.755	0.661	0.62	0.593	0.592	0.575	0.273	0.694
NCI-H1915	0.499	0.537	0.452	0.517	0.0617	0.307	0.338	0.315	0.317	0.229	0.256	0.261	0.26	0.393	0.347	0.344	0.288	–	0.258
NCI-H1944	0.523	0.744	0.527	0.505	0.215	0.193	0.22	0.207	0.203	0.387	0.412	0.463	0.45	0.189	0.184	0.202	0.192	0.179	0.409
NCI-H1975	0.706	0.611	0.261	0.129	0.135	0.347	0.381	0.349	0.43	0.404	0.322	0.466	0.39	0.437	0.385	0.414	0.408	0.387	0.31
NCI-H1993	0.631	0.804	0.876	0.366	0.288	–	0.483	0.488	0.511	0.515	0.525	0.608	0.602	0.529	0.511	0.501	0.447	0.49	0.606
NCI-H2009	0.717	0.821	0.757	0.179	0.0653	0.265	0.296	0.253	0.275	0.382	0.372	0.348	0.392	0.557	0.49	0.438	0.386	0.249	0.387
NCI-H2023	0.471	0.657	0.619	0.224	0.0546	0.532	0.537	0.449	0.389	0.186	0.236	0.272	0.255	0.466	0.36	0.391	0.359	0.258	0.202
NCI-H2085	0.71	0.879	0.497	0.222	0.3	0.209	0.232	0.228	0.28	0.565	0.518	0.554	0.595	0.837	0.69	0.682	0.625	0.282	0.54
